Experimental data published in the NIST ThermoML archive (doi:10.1016/j.jct.2013.02.023).

Assay: molar heat capacity at constant pressure
Conditions: 101.33 kPa, relaxation calorimetry - Quantum Design PPMS

O=P([O-])([O-])OP(=O)([O-])[O-].O=P([O-])([O-])OP(=O)([O-])[O-].O=P([O-])([O-])OP(=O)([O-])[O-].[Fe+3].[Fe+3].[Fe+3].[Fe+3] [iron(III) diphosphate]
molar heat capacity at constant pressure [J/K/mol]
Conditions | Crystal 1 | Crystal 2
45.43 K | – | 122.94
45.64 K | – | 124.36
45.84 K | – | 125.76
46.02 K | – | 126.95
46.22 K | – | 128.47
46.44 K | – | 130.17
46.64 K | – | 131.93
46.84 K | – | 133.84
47.05 K | – | 135.68
47.24 K | – | 137.48
47.38 K | – | 138.74
47.44 K | – | 139.11
47.58 K | – | 139.19
47.6 K | 139.19 | 139.19
47.65 K | 138.86 | –
47.77 K | 136.97 | –
47.84 K | 134.84 | –
47.97 K | 130.03 | –
48.05 K | 126.52 | –
48.16 K | 121.47 | –
48.26 K | 116.89 | –
48.36 K | 112.95 | –
48.42 K | 110.73 | –
48.55 K | 107.38 | –
48.66 K | 105.62 | –
48.76 K | 103.95 | –
48.97 K | 102.08 | –
49.16 K | 101.07 | –
49.25 K | 100.78 | –
49.37 K | 100.37 | –
49.56 K | 99.82 | –
49.74 K | 99.5 | –
49.76 K | 99.49 | –
49.97 K | 99.12 | –
50 K | 99.09 | –
50.16 K | 98.85 | –
50.24 K | 98.89 | –
50.37 K | 98.71 | –
50.75 K | 98.49 | –
51.26 K | 98.47 | –
51.78 K | 98.62 | –
52.26 K | 99.14 | –
52.77 K | 99.39 | –
53.27 K | 99.87 | –
53.79 K | 100.51 | –
53.8 K | 100.65 | –
54.3 K | 101.12 | –
54.8 K | 101.89 | –
55 K | 102.2 | –
55.3 K | 102.66 | –
55.82 K | 103.45 | –
56.32 K | 104.29 | –
56.83 K | 105.21 | –
57.33 K | 106.12 | –
57.82 K | 106.98 | –
58.35 K | 107.99 | –
58.86 K | 109.04 | –
59.33 K | 110.07 | –
59.86 K | 111.09 | –
60 K | 111.36 | –
60.37 K | 112.09 | –
61.22 K | 114 | –
62.42 K | 116.32 | –
63.41 K | 118.45 | –
64.42 K | 120.61 | –
65 K | 121.89 | –
65.42 K | 122.92 | –
